# According to US7012083B2, “Compounds useful in therapy” (Pfizer Inc., priority 1999, dated 2006):
# System: hind leg scratching behaviour induced by 5-methoxytryptamine hydrochloride
# Test: Inhibition of hind leg scratching behaviour induced in rats by a pruritogenic agent
# Format: in vivo, Male Wistar rats
# Conditions: rat, pruritogen 5-methoxytryptamine hydrochloride 4 mg/3 mL/kg s.c.; test compound s.c. in aqueous micelle formulation; scratching score over 25 minutes
# Description: The compounds of the invention are evaluated for their activity as antipruritic agents by measuring their ability to inhibit the hind leg scratching behaviour induced in rats by the administration of a known pruritogenic agent. These studies are based on the procedure described by Berendsen and Broekkamp in the European Journal of Pharmacology, 1991, 194, 201. The test is performed as follows: • Male Wistar rats (approximately 150 g body weight) are challenged with a pruritogen by subcutaneous injection of 5-methoxytryptamine hydrochloride (4 mg/3 mL/kg) dissolved in physiological saline into the scruff of the neck. At this dose a constant and quantifiable hindleg scratching response lasting up to 90 minutes is obtained. • The test compound is administered to the test animals by subcutaneous injection in an aqueous micelle formulation. The test compound is prepared in the following manner. […] The compounds can be administered pre- or post-challenge or may be administered at the same time as the pruritogenic challenge. • After the pruritogen challenge has been administered, hindleg scratching is scored for each animal by recording the presence or absence of scratching during each 30 second interval as 1 or 0 scored respectively. […]
structure (smiles),measurement,value
"CCCCCCN1CC[C@@](C)(c2cccc(OC(=O)NC)c2)[C@H](C)C1 (racemic) [Example 2, (±)-3-(1-Hexyl-trans-3,4-dimethyl-4-piperidinyl)phenyl methylcarbamate]",anti-pruritic activity,found to display anti-pruritic activity
